Experimental data published in patent publication US11760751B2, “Benzo 2-azaspiro[4.4]nonane compound and use thereof” (HELIOEAST PHARMACEUTICAL CO., LTD., priority 2020, dated 2023).
pEC50: −log10 of the molar value.

Assays:
[1] = Pharmacokinetic evaluation in SD rats at different oral doses; format: in vivo, Sprague Dawley rats; conditions: SD rat, single oral administration 5 mg/kg, 5 mg/kg
Procedure: Test Embodiment 5: Pharmacokinetic Evaluation of Compounds in Rats at Different Doses
Experimental objective: to test the pharmacokinetics of the compounds in SD rats at different doses
Sprague Dawley rats (male, 200-300 g, 7-9 weeks old, Shanghai SLAC)
A standard protocol was used to test the pharmacokinetic characteristics of the compounds in SD rats after oral administration. In the experiment, the candidate compound was prepared into a clear solution, and administrated to rats by single oral administration. The vehicle for compound 1 was DMSO: 10% hydroxypropyl β-cyclodextrin aqueous solution=5:95. The vehicle for compounds 1A and 1B was 0.5% carboxymethyl cellulose +0.2% Tween 80. Whole blood samples of compounds 1, 1A and 1B within 48 hours were collected, centrifuged at 3000 g for 15 minutes, and the supernatant was separated to obtain plasma samples. 4-fold volume of acetonitrile solution containing internal standard was added thereto to precipitate protein. The mixture was centrifuged, and the supernatant was taken, and an equal volume of water was added thereto. Then the mixture was centrifuged and the supernatant was taken for injection. The blood drug concentration was quantitatively analyzed by LC-MS/MS analysis method, and pharmacokinetic parameters, such as peak concentration, peak time, half-life, area under the drug-time curve, were calculated.

S1PR1 = biological target: T1, S1PR1 (Homo sapiens, UniProt P21453); assay: In vitro S1PR1 agonistic activity, U2OS-EDG1 cells, LiveBLAzer-FRET B/G (CCF4-AM); format: cell-based
T1 construct: expressed in transfected cells
T1 sequence (P21453 whole entry): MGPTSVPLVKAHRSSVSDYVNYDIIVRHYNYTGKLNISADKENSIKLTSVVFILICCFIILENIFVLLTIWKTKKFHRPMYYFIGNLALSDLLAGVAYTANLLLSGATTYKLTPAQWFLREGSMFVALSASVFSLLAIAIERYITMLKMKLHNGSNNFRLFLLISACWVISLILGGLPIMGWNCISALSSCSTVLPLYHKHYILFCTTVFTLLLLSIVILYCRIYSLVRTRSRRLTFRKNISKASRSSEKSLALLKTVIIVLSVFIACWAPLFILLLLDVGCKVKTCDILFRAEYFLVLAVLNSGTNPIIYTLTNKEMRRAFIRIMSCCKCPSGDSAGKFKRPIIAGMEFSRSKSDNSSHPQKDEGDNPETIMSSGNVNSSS
Procedure: Test Embodiment 2: In Vitro Evaluation of the Agonistic Activity of the Compounds of the Present Disclosure on S1PR1
Experimental objective: to detect the agonistic activity of compounds on S1PR1
I. Cell Treatment • 1. The cells U2OS-EDG1 (batch number: Invitrogen-K1520) were taken out from a liquid nitrogen tank and quickly thawed in a 37° C. water bath; • 2. the cell suspension was aspirated into a 15 mL centrifuge tube, resuspended in 5 mL of pre-warmed culture medium, and centrifuged at 1000 rpm for 5 min; • 3. the supernatant was discarded, 10 mL of culture medium was resuspended, transferred to a T75 culture flask, and cultured in a 37° C., 5% CO2 incubator.
II. Agonist Assay • 1. Compounds were diluted to working concentrations, and the compounds were 3-fold diluted by Echo 555 (manufacturer: Labcyte) to 10 concentrations, and then 200 nL of each concentration were transferred to cell plates, and centrifuged at 1000 rpm for 15 seconds; • 2. the culture medium in the culture flask was aspirated, and 4 mL of Dulbecco's Phosphate Buffered Saline (DPBS, supplier: Coring, catalog number: 21-031-CVR, batch number: 03318006) was added thereto to wash off the residual serum, and 2 mL of trypsin was added thereto, and incubated in a 37° C. incubator for 2 minutes to digest the cells, and then 10 mL of seed plate culture medium was added to resuspend the cells, and 0.6 mL of the cell suspension was taken out for counting; • 3. the cell density was adjusted with the seed plate culture medium to 1.88E+05 cells/mL, 40 μL was seeded per well (7500\well), and 40 μL of FreeStyle™ Expression culture medium was added around the cell plate, left to stand for 15 minutes at room temperature, and incubated at 37° C. with 5% CO2 for 20 hours.
III. Signal Detection • 1. LiveBLAzer™-FRET B/G Substrate (CCF4-AM) detection reagent was configured according to the instructions; • 2. 8 μL of 6×Substrate Mixture was added to each well of the cell plate, centrifuged at 1000 rpm for 15 seconds, attached with a membrane, incubated at 23° C. for 2 hours, and detected by Envision […].
IV. Data Analysis • 1. The original data was converted into % Effect by using the equation, and the value of EC50 could be obtained by curve fitting with four parameters [obtained in the “log(agonist) vs. response—Variable slope” mode in GraphPad Prism]; • 2. calculation formula: Ratio=(460 nm−blank)/(535 nm−blank) % Effect=(SampleRatio−Ave LCRatio)/(Ave HCRatio−Ave LCRatio)*100%

- Area under the drug-time curve AUC0-last PO [1]: 26.434 µM·h
- Half-life T1/2 (PO) [1]: 5.69 h
- Peak time Tmax [1]: 2 h
- Cmax ([1]; read-out: Peak concentration Cmax): 2500 nM
- pEC50 (S1PR1; 20 hours incubation): 9.82
- Emax (S1PR1; % Effect, read-out: Emax): 84.2%
SMILES: CC(C)Oc1ccc(-c2nc(-c3cccc4c3CCC43CCN(CC4(C(=O)O)CC4)C3)no2)cc1C#N (single isomer, unassigned) [Compound 22A]
